Data: patent US20230230698A1, “ANTIMICROBIAL CHOICE ALGORITHM FOR URINARY TRACT INFECTIONS” (Northwestern University, priority 2020, published 2023)
Where two headings read alike, the source gives them in different places.

Tests used:
uropathogen [1] = test: Urine culture antimicrobial susceptibility (Vitek 2), outpatients with complicated UTI; type: cell-based; conditions: for Overall prevalence of resistance: complicated UTI outpatients, 2012-2018, 2,286 cultures (>=10^3 CFU/mL), resistant or intermediate susceptibility; for proportion of patients resistant: complicated UTI, 2017-2018 testing cohort, 646 patients, Chicago ZIP code
Description: Materials and Methods: We performed a retrospective, single-center, cross-sectional study of 2,286 outpatients with a diagnosed complicated UTI from 2012-2018. For patients with confirmed UTI (≥10^3 CFU/mL) with antimicrobial sensitivities, univariate analyses and multivariable regression models were used to determine odds ratios for predicting resistance to SXT, NIT, CIP, CF-1, and CF-3 for the 2012-2016 data. Antimicrobial choice algorithms were created using 2012-2016 results and tested on 2017-2018 data.
This study was approved and performed in accordance with the Northwestern Medicine Institutional Review Board (STU00207763). This is a retrospective cross-sectional study of patients aged 18 or older that submitted urine cultures as outpatients from 2012 to 2018 at any Northwestern Medicine site, which encompasses the greater Chicago area. Data were obtained from the Northwestern Medicine Enterprise Data Warehouse, which is a data integration warehouse designed for research and clinical operations. […] Patients and cultures were included only if they were linked to any ICD 9 or 10 diagnosis code in the previous two years that would have been associated with a complicated UTI^6. Patients were included exactly once based on their most recent culture, and all prior culture data were used as covariates. […] Cultures were included in analysis if positive (identified uropathogen≥10^3 colony forming units per milliliter (CFU/mL)) and antimicrobial susceptibilities were reported for the dominant species. All specimen collection and testing were done uniformly in accordance with Northwestern Medicine Guidelines. Isolation, colony count and identification testing were performed using Vitek 2 cards (bioMérieux).
For the 2012 to 2016 patients, outcomes of interest were uropathogen resistance (defined as resistant or intermediate susceptibility) to trimethoprim-sulfamethoxazole (SXT), ciprofloxacin (CIP), nitrofurantoin (NIT), first-generation cephalosporin (CF-1) and third-generation cephalosporin (CF-3). The resistance prevalence was also stratified by Chicago ZIP code for each antimicrobial.
The algorithms developed using the above-described cohort were then tested on the 2017-2018 cohort. […] Also, the predictive value of time between cultures and uropathogen concurrence between cultures was examined in this cohort^10,17. All analyses were done using R (version 3.5.2).

uropathogen [2] = test: Urine culture antimicrobial susceptibility (Vitek 2), women outpatients with uncomplicated UTI; type: cell-based; conditions: for proportion with culture susceptible, theoretical scenario of all patients receiving the drug / proportion with culture susceptible if everyone was prescribed the drug: 2018 cohort; for proportion with culture susceptible, theoretical scenario of all patients receiving the drug: 258 patients with prior microbiologic data; for proportion with culture susceptible, theoretical scenario of all patients being prescribed the drug: 2018 cohort, 1,169 patients without prior microbiologic data; for proportion with culture susceptible if everyone was prescribed the drug: all 1,427 patients; for Overall prevalence of resistance / proportion of patients resistant: uncomplicated UTI; for Overall prevalence of resistance: 2011-2017 cohort, 9,455 positive cultures (>=10^3 CFU/mL), resistant or intermediate susceptibility; for proportion of patients resistant: 2018 testing cohort, 1,427 women, Chicago ZIP code
Description: Data were obtained from the Northwestern Medicine Enterprise Data Warehouse, which is a data integration warehouse designed for research and clinical operations. […] Cultures were included in analysis if positive (identified uropathogen≥10^3 colony forming units per milliliter (CFU/mL)) and antimicrobial susceptibilities reported for the dominant species. The colony count cutoff of ≥10^3 CFU/mL was used as it has been noted that low thresholds have appropriate diagnostic value for women with symptoms of a UTI.^5, 17, 18 The Northwestern Medicine Institutional Review Board approved this study (STU00207763).
All specimen collection and testing were done uniformly in accordance with Northwestern Medicine Guidelines. Isolation, colony count and identification testing were performed using Vitek 2 cards (bioMérieux).
For the 2011-2017 patients, outcomes of interest were uropathogen resistance (defined as resistant or intermediate susceptibility) to SXT, NIT and CIP. Covariates were patient demographics (age, race and patient's place of residence (ZIP code)) antimicrobial prescriptions within the past two years, diagnosis codes associated with current and past encounters, past urine culture results and department to which they presented. Risk factors were compared between patients who had resistant and sensitive cultures using two-sample t-tests (continuous variables) and chi-squared tests (categorical variables). Multivariate logistic regression models were used to investigate the association between risk factors and resistant cultures. Odds ratios (OR) were derived from these models to determine the probability of having a resistant culture with those factors.
The algorithms developed using the above-described cohort were then tested on the 2018 cohort. […] All analyses were done using R (version 3.5.2).

uropathogen [3] = test: Resistance in community acquired UTIs, uncomplicated and complicated combined; type: cell-based; conditions: 2018
Description: The prevalence of resistance for patients with complicated UTIs was compared to data from our previous publication for uncomplicated UTIs and available hospital data^17. The prevalence of resistance by ZIP code for the complicated UTI population was then compared between each antibiotic and to the distribution of prevalence by ZIP code for the uncomplicated population for the previous study, for CIP, SXT and NIT (the three antimicrobials evaluated in the previous study)^17.

uropathogen [4] = conditions: 2018, both inpatient and outpatient cultures; cited from earlier work

| Molecule | Overall prevalence of resistance (uropathogen [1]) | proportion of patients resistant (uropathogen [1]) | proportion with culture susceptible, theoretical scenario of all patients receiving the drug (uropathogen [2]) | proportion with culture susceptible, theoretical scenario of all patients being prescribed the drug (uropathogen [2]) | proportion with culture susceptible if everyone was prescribed the drug (uropathogen [2]) | Overall prevalence of resistance (uropathogen [2]) | proportion of patients resistant (uropathogen [2]) | resistance, complicated UTI (uropathogen [1]; 2018, community acquired) | resistance for community acquired UTIs, both uncomplicated and complicated (uropathogen [3]) | Overall prevalence of resistance (uropathogen [4]) |
| --- | --- | --- | --- | --- | --- | --- | --- | --- | --- | --- |
| O=C1CN(/N=C/c2ccc([N+](=O)[O-])o2)C(=O)N1 [NIT, nitrofurantoin] | 18.9% | 18.1% | 93.8% | 89.2% | 90.0% | 12.1% | 10.0% | – | – | – |
| O=C(O)c1cn(C2CC2)c2cc(N3CCNCC3)c(F)cc2c1=O [CIP, ciprofloxacin] | 19.4% | 18.4% | – | – | – | 10.3% | 10.7% | 16.2% | 11.2% | 25% |
| trimethoprim-sulfamethoxazole [SXT] | 25.5% | 25.9% | 72.1% | 79.3% | 78.0% | 19.4% | 22.0% | – | – | – |
